This note sets out measurements from paper PMC10743388, “Jacalin-Curcumin Complex Sensitizes the Breast Cancer MDA-MB-231 Cell Line” (International Journal of Molecular Sciences, 2023).

The target of this test is T1, jacalin (Artocarpus integer, UniProt P18670+P18671).
T1 construct: native tetrameric lectin isolated from jackfruit seeds; labelled with Red-NHS 2nd Generation (Alexa Fluor 647) for MST
Put plainly: microscale thermophoresis with labelled jacalin; steady-state fluorescence titration also gave KD […]. Type of test: binding. Background: In MST a laser heats a spot of the sample, and binding alters the fluorescence response.

For orientation: Kd means the constant that tells how readily two partners part at equilibrium.

T1 sequence (P18670 whole entry): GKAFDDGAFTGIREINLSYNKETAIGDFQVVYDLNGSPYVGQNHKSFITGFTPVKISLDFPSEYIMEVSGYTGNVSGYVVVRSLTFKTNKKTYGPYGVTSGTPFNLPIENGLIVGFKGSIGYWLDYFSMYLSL
T1 sequence (P18671 whole entry): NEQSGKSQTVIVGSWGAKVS

For the molecule `COc1cc(/C=C/C(=O)CC(=O)/C=C/c2ccc(O)c(OC)c2)ccc1O` [curcumin], binding was put at a Kd of 0.45 µM.
